Residues, ends and D or L forms follow the SMILES beside them.
Tests used:
[1] = target: human furin (Homo sapiens, UniProt P09958); assay: Human furin inhibition, hydrolysis of Ac-RVRR-MCA; format: biochemical; settings: for activity at 5 µM: 5 μM inhibitor; for activity at 10 µM: 10 μM inhibitor; for activity at 15 µM: 15 μM inhibitor; for activity at 40 µM: 40 μM inhibitor
Method in brief: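 Fluorogenic Ac-RVRR-MCA hydrolysis by furin in 10 mM MES, 1 mM CaCl2, pH 7.0, 36.5° C, […]. Residual activity measured by fluorescence at increasing inhibitor levels; Ki from Morrison equation for competitive tight-binding inhibition, with Kiapp correction for [S]˜Km.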

[2] = target: T1, dengue 2 protease (Dengue virus type 2, UniProt P14340); assay: Dengue 2 protease inhibition in presence of Triton X-100 (detergent test, Nature Protocol); format: biochemical, dengue 2 virus; settings: 0.05% Triton X-100; for Activity with 0.05% Triton: initial activity in UAF/min
T1 construct: The active site of the dengue protease is in the N-terminal part of NS3
T1 sequence (P14340 1476-1653): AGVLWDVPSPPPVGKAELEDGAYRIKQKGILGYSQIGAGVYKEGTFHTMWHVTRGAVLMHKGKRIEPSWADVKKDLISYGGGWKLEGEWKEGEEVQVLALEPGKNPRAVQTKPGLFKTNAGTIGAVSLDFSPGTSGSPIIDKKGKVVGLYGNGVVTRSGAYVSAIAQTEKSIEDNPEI
Source text: A further investigation of the interactions of the geminoid inhibitors with biological membranes and with membrane-bound proteases is needed. […] The preparation and tests of peptides symmetrically, asymmetrically and singly alkylated with saturated, short (C6), and unsaturated (C18:1) alkyl tails are in progress.

[3] = target: T2, DENV2 protease (Dengue virus type 2, UniProt P14340); assay: DENV2 protease biochemical assay; settings: 50 μM inhibitor
T2 construct: The active site of the dengue protease is in the N-terminal part of NS3
T2 sequence (P14340 1476-1653): as above
T2 sequence (P14340 1398-1437): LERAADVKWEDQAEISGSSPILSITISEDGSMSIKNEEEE

[4] = target: T3, trypsin (Bos taurus, UniProt P00760); assay: Trypsin inhibition, fluorimetric enzyme assay; format: biochemical
T3 construct: gene PRSS1
T3 sequence (P00760 24-246): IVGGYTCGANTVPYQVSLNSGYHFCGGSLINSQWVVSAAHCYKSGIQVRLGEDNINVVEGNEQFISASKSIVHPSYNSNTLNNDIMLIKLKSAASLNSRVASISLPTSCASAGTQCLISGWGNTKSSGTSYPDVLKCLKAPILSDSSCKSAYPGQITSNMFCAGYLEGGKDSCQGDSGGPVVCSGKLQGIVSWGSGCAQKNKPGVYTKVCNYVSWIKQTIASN

[5] = target: T1, dengue 2 protease; assay: Dengue 2 protease inhibition, hydrolysis of Z-RR-MCA; format: biochemical, dengue 2 virus; design: Activity with inhibitors: unit not given here; settings: for activity at 5 µM: 5 μM inhibitor; for activity at 10 µM: 10 μM inhibitor; for activity at 15 µM: 15 μM inhibitor; for activity at 40 µM: 40 μM inhibitor
[6] = target: plasmin (Homo sapiens, UniProt P00747); assay: Plasmin inhibition, fluorimetric enzyme assay; format: biochemical; settings: 36.5° C., read-out: Residual Activity (%) Plasmin
plasmin, sequence (P00747 581-810 limits assumed, species assumed): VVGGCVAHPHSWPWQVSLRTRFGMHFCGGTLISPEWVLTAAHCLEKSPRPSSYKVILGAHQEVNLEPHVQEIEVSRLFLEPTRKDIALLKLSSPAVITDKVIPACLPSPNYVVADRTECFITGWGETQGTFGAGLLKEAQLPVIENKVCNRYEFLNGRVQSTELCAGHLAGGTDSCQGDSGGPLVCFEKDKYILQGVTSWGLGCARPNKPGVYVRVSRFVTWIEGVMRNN
plasmin, sequence (P00747 97-580 partner limits assumed, species assumed): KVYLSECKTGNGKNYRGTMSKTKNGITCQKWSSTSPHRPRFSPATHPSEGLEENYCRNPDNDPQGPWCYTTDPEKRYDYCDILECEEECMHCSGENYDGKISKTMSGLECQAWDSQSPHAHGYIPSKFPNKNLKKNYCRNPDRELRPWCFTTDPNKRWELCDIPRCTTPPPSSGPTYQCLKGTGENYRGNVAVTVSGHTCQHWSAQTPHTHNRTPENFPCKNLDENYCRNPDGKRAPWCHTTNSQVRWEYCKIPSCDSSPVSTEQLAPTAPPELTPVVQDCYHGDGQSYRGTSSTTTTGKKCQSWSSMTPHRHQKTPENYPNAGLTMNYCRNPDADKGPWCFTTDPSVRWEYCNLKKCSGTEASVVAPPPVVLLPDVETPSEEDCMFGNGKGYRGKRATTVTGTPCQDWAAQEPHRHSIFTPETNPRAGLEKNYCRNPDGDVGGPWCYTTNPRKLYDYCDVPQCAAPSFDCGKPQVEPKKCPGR
Experimental: The enzyme was dissolved in 1 mL MES buffer (10 mM), 1 mM CaCl2, pH 7.0 at 36.5° C. Substrate was added in a concentration 10 times the Km, and the inhibitor compounds of type C (C16-KGnK-C16, C16-KAnK-C16, and C16-RAnR-C16) were added in increasing concentrations (1.0, 5.0, 10.0, 20.0, 40.0 μL) from a stock solution of 2 mg in 1 mL DMSO. The residual activity was measured in a Hitachi F2500 spectrofluorimeter, and plots were fitted using the Grafit® software (Erithracus Software, Horley, Surrey, UK). All the assays were calculated by the Morrison equation for competitive inhibition (eq. 1, [Morrison, 1969]). The amount of substrate used for the tight binding titration experiments follow all the requirements, where [S]<<Km for all enzymes, so the Kiapp=Ki.
The first group of gemini-like peptide amphiphiles to be screened was that of C16-K(G or A)nK-C16 (compound type C, with R1=n-C15H31, R2=n-C16H33). […] The results of the Ki determination for trypsin, dengue 2 protease, and human furin are given in Table 1A; some general data for the inhibition by this type of compounds are given in Table 1B. For most compounds in Table 1 the Ki could be derived from competitive inhibition experiments. Judging from the Ki values with the relatively simple substrate Z-RR-MCA, the best inhibitors for dengue 2 protease contain alanine (A) rather than glycine (G).

[7] = target: T1, dengue 2 protease; assay: Dengue 2 protease inhibition, hydrolysis of Z-RR-MCA; format: biochemical, dengue 2 virus; design: unit not given here; settings: 30 μM of inhibitor; 10 μM Z-RR-MCA, pH 9.0, 37° C.; initial activity in UAF/min
[8] = system: DENV2 protease replicon; assay: DENV2 protease replicon assay; format: cell-based; settings: lowest concentration with observed activity in replicon assay
[9] = target: thrombin (Homo sapiens, UniProt P00734); assay: Thrombin inhibition, fluorimetric enzyme assay; format: biochemical; settings: 36.5° C., read-out: Residual Activity (%) Thrombin

human furin, sequence (P09958 108-794): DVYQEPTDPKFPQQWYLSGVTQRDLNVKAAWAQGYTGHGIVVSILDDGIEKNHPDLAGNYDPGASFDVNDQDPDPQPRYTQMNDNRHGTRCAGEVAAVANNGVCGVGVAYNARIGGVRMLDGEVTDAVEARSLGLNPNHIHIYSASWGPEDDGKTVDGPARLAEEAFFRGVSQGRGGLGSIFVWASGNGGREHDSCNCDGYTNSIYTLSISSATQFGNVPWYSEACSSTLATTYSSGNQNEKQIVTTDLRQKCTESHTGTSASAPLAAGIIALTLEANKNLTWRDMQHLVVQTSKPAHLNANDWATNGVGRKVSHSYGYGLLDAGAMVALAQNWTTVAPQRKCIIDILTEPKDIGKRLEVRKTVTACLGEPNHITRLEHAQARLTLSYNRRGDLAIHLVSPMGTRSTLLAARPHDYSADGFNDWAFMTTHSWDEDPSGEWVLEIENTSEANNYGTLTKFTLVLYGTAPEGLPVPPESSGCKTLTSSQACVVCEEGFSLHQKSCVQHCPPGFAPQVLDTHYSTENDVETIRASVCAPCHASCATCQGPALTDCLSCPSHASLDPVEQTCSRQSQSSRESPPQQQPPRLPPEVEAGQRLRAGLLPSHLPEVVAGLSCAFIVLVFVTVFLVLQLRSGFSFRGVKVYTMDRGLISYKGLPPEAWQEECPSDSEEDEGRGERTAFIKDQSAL

Q: Which results are given for `CCCCCCCCCCCCCCCCNC(=O)[C@H](CCCCN)NC(=O)[C@H](C)NC(=O)[C@H](CCCCN)NC(=O)CCCCCCCCCCCCCCC` [C16-KAK-C16]?
A: activity at 2.5 µM ([1]; 2.5 μM inhibitor, 36.5° C.): 43%; activity at 5 µM ([1]; 36.5° C.): 30%; activity at 10 µM ([1]; 36.5° C.): 10%; activity at 15 µM ([1]; 36.5° C.): 0%; activity at 40 µM ([1]; 36.5° C.): 0%; Ki ([1]; 10 mM Mes.NaOH, pH 7.0, 2.35 μM Ac-RVRR-MCA, 37° C., read-out: Ki hFurin): 0.54 µM; % recovery in presence of Triton ([2]; 30 μM of inhibitor): 41%; Activity with 0.05% Triton ([2]; 30 μM of inhibitor): 91; inhibition at 50 µM [3]: 106%; Ki [4]: 15.2 µM; remaining activity at 15 µM ([4]; 15 μM inhibitor, 36.5° C., read-out: Residual Activity (%) Trypsin): 68%; remaining activity at 40 µM ([4]; 40 μM inhibitor, 36.5° C., read-out: Residual Activity (%) Trypsin): 35%; remaining activity at 80 µM ([4]; 80 μM inhibitor, 36.5° C., read-out: Residual Activity (%) Trypsin): 21%; Ki [5]: 0.37 µM; activity at 2.5 µM ([5]; 2.5 μM inhibitor, 36.5° C.): 87%; activity at 5 µM ([5]; 36.5° C.): 66%; activity at 10 µM ([5]; 36.5° C.): 26%; activity at 15 µM ([5]; 36.5° C.): 15%; activity at 40 µM ([5]; 36.5° C.): 6%; remaining activity at 15 µM ([6]; 15 μM inhibitor): 62%; remaining activity at 40 µM ([6]; 40 μM inhibitor): 20%; remaining activity at 80 µM ([6]; 80 μM inhibitor): 3%; Activity with inhibitors [7]: 0; Replicon activity [μM] (1) [8]: 0.3 µM; remaining activity at 15 µM ([9]; 15 μM inhibitor): 80%; remaining activity at 40 µM ([9]; 40 μM inhibitor): 64%; remaining activity at 80 µM ([9]; 80 μM inhibitor): 42%

Q: How did the activity at 5 µM ([1]; 36.5° C.) turn out when `CCCCCCCCCCCCCCCCNC(=O)[C@H](CCCCN)NC(=O)CNC(=O)CNC(=O)[C@H](CCCCN)NC(=O)CCCCCCCCCCCCCCC` [C16-KGGK-C16, C15H31CO-KGGK-NH—C16H33] (HELM PEPTIDE1{[CCCCCCCCCCCCCCCC(=O)[*:2]].K.G.G.K.[CCCCCCCCCCCCCCCCN[*:1]]}$$$$V2.0) was run?
A: 94%

Q: And the activity at 10 µM ([1]; 36.5° C.)?
A: 85%

Q: And the activity at 15 µM ([1]; 36.5° C.)?
A: 76%

Q: And the activity at 20 µM ([1]; 20 μM inhibitor, 36.5° C.)?
A: 67%

Q: What about the activity at 40 µM ([1]; 36.5° C.) of the same compound?
A: 3%

Q: What about the “% recovery in presence of Triton” value ([2]; 10 μM of inhibitor) of the same compound?
A: 73%

Q: And the “Activity with 0.05% Triton” value ([2]; 10 μM of inhibitor)?
A: 160

Q: What about the inhibition at 50 µM [3] of the same compound?
A: 104%

Q: What about the remaining activity at 18 µM ([4]; 18 μM inhibitor, 36.5° C., read-out: Residual Activity (%) Trypsin) of the same compound?
A: 79%

Q: What about the remaining activity at 55 µM ([4]; 55 μM inhibitor, 36.5° C., read-out: Residual Activity (%) Trypsin) of the same compound?
A: 45%

Q: And the remaining activity at 85 µM ([4]; 85 μM inhibitor, 36.5° C., read-out: Residual Activity (%) Trypsin)?
A: 24%

Q: What about the Ki [5] of the same compound?
A: 5.75 µM

Q: And the activity at 5 µM ([5]; 36.5° C.)?
A: 88%

Q: And the activity at 10 µM ([5]; 36.5° C.)?
A: 84%

Q: And the Activity with inhibitors ([5]; 10 μM of inhibitor, 10 μM Z-RR-MCA, pH 9.0, 37° C., initial activity in UAF/min)?
A: 10

Q: And the activity at 15 µM ([5]; 36.5° C.)?
A: 76%

Q: What about the activity at 20 µM ([5]; 20 μM inhibitor, 36.5° C.) of the same compound?
A: 70%

Q: And the activity at 40 µM ([5]; 36.5° C.)?
A: 64%

Q: And the remaining activity at 18 µM ([6]; 18 μM inhibitor)?
A: 30%

Q: And the remaining activity at 55 µM ([6]; 55 μM inhibitor)?
A: 11%

Q: What about the remaining activity at 85 µM ([6]; 85 μM inhibitor) of the same compound?
A: 4%

Q: And the “Replicon activity [μM] (1)” value [8]?
A: 0.3 µM

Q: And the remaining activity at 18 µM ([9]; 18 μM inhibitor)?
A: 78%

Q: What about the remaining activity at 55 µM ([9]; 55 μM inhibitor) of the same compound?
A: 46%

Q: And the remaining activity at 85 µM ([9]; 85 μM inhibitor)?
A: 33%
